Assay results taken from ChEMBL document CHEMBL1201862, “PubChem BioAssay data set” (2004).
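Following 48 hours of exposure in 96-well plates, responses at five concentrations were used to interpolate endpoints linearly. GI50 marks 50% less growth.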 Activity calls are given as the source filed them. Cut-off read from the data, not from the text of the source: active = GI50 up to about 1.1 µM and inactive = higher.

Experiments:
Experiment in all cases: NCI tumour cell line growth inhibition, 48 h
[1] = system: MCF7
[2] = system: NCI-H23
[3] = system: OVCAR-8
[4] = system: TK-10
[5] = system: M14
[6] = system: ACHN
[7] = system: SF-268
[8] = system: EKVX
[9] = system: HOP-62
[10] = system: NCI-H226
[11] = system: MDA-MB-435
[12] = system: UACC-62
[13] = system: COLO 205
[14] = system: UO-31
[15] = system: 786-0
[16] = system: OVCAR-3
[17] = system: HOP-92
[18] = system: CCRF-CEM
[19] = system: LOX IMVI
[20] = system: Malme-3M

Measured: GI50

COc1ccc(C2SCC(=O)N2NC(=O)c2ccc(NC(C)=O)cc2)c(OC)c1 (stereo not drawn)
inactive: [1] > 100 µM | [2] > 100 µM | [3] > 100 µM | [4] > 100 µM | [5] 69.8 µM | [6] > 100 µM | [7] > 100 µM | [8] > 100 µM | [9] > 100 µM | [10] > 100 µM | [11] > 100 µM | [12] > 100 µM | [13] > 100 µM | [14] > 100 µM | [15] > 100 µM | [16] > 100 µM | [17] > 100 µM

Cc1ccc2c(c1)[n+]([O-])c(N)n[n+]2[O-]
inactive: [1] > 100 µM | [2] 63.2 µM | [3] > 100 µM | [4] > 100 µM | [18] 91.2 µM | [5] > 100 µM | [6] > 100 µM | [7] > 100 µM | [8] > 100 µM | [9] > 100 µM | [10] > 100 µM | [11] > 100 µM | [12] > 10 µM | [13] 63.1 µM | [14] > 100 µM | [15] > 100 µM | [16] > 100 µM | [19] 85.3 µM

Oc1ccc(-c2nc3ccc(Br)cc3s2)cc1
inactive: [1] 4.85 µM | [2] 22.1 µM | [3] 20.4 µM | [4] 17.3 µM | [18] 3.74 µM | [5] 18.9 µM | [6] 22.2 µM | [7] 16.3 µM | [8] 13 µM | [10] 16.3 µM | [20] 27 µM | [11] 21.1 µM | [12] 13 µM | [13] 15.9 µM | [14] 14.5 µM | [16] 14.3 µM | [19] 15.5 µM

COc1cc([N+](=O)[O-])c(S(=O)(=O)O)cc1-n1nc(-c2ccccc2)n[n+]1-c1cc(S(=O)(=O)[O-])c([N+](=O)[O-])cc1OC
inactive: [1] > 100 µM | [2] > 100 µM | [3] > 100 µM | [18] > 100 µM | [5] > 100 µM | [6] > 100 µM | [7] > 100 µM | [8] > 100 µM | [9] > 100 µM | [10] > 100 µM | [20] > 100 µM | [11] > 100 µM | [12] > 100 µM | [13] > 100 µM | [14] > 100 µM | [15] > 100 µM | [16] > 100 µM | [19] > 100 µM

C#C/C=C\CCCC/C=C\C#CC#CCCCC#CC#C[C@H](COS(=O)(=O)O)OS(=O)(=O)O
inactive: [1] > 100 µM | [2] > 100 µM | [3] > 100 µM | [4] > 100 µM | [18] > 100 µM | [5] > 100 µM | [6] > 100 µM | [7] > 100 µM | [8] > 100 µM | [9] > 100 µM | [11] > 100 µM | [12] > 100 µM | [13] > 100 µM | [14] 72.4 µM | [15] > 100 µM | [16] > 100 µM | [19] > 100 µM | [17] > 100 µM

CN(/N=C/c1ccc(OCc2cccc(COc3ccc(C=O)cc3)n2)cc1)c1cnn(-c2ccc(Cl)cc2Cl)c(=O)c1Cl
inactive: [1] > 100 µM | [2] > 100 µM | [3] > 100 µM | [4] 64.9 µM | [18] > 100 µM | [5] > 100 µM | [6] 73.5 µM | [7] 56 µM | [8] 16 µM | [9] 17.7 µM | [10] > 100 µM | [20] 84.1 µM | [11] > 100 µM | [12] > 100 µM | [13] > 100 µM | [14] > 100 µM | [15] 81.8 µM | [16] > 100 µM | [19] 88.1 µM

N[C@@H]1C[C@H](N)c2c(Cl)sc(Cl)c21
inactive: [1] > 100 µM | [2] > 100 µM | [3] > 100 µM | [18] > 100 µM | [5] > 100 µM | [6] > 100 µM | [8] > 100 µM | [9] > 100 µM | [10] > 100 µM | [11] > 100 µM | [12] > 100 µM | [13] > 100 µM | [14] > 100 µM | [15] > 100 µM | [16] > 100 µM | [19] > 100 µM | [17] > 100 µM

CN(Cc1cccc2ccccc12)Cc1cccc2ccccc12
inactive: [1] 20.7 µM | [2] 26.6 µM | [3] 70.5 µM | [4] > 100 µM | [18] 16.6 µM | [5] 27.5 µM | [6] 37.6 µM | [7] 41.6 µM | [8] 37.5 µM | [9] 45.6 µM | [10] 30.9 µM | [20] 20 µM | [11] 35.7 µM | [12] 67.5 µM | [13] 17.8 µM | [14] 36.6 µM | [15] 37.8 µM | [16] 44.4 µM | [19] 34.3 µM
